Reference: patent publication US9440969B2, “Compounds and methods for kinase modulation, and indications therefor” (PLEXXIKON INC., priority 2009, dated 2016)

Assays:
CYP3A4(BFC) = CYP3A4(BFC) (Homo sapiens, UniProt P08684); assay: CYP3A4 inhibition (substrate BFC); type: in vitro ADME; details: read-out: Cyp IC50 (μM) 3A4(BFC)
Experimental: (§1) CYP (Cytochrome P450) enzymes are the major drug metabolizing enzymes present in the liver. The inhibition of CYP enzyme activity (IC50) for each of CYP1A2, CYP2C19, CYP2C9, CYP2D6, CYP3A4(BFC) and CYP3A4(BQ) is determined for compounds, where inhibition of metabolism of a known substrate leads to a decrease in the fluorescence of the metabolized product. The fluorescence of the product is monitored as a function of compound concentration. Compounds are dissolved in dimethyl sulfoxide to a concentration of 100 mM. These are diluted […], into 82 μL of acetonitrile. An 11 μL aliquot of this solution is then added to 204 μL of cofactor mix (1.3% NADPH Regeneration system Solution A, 1.04% NADPH Regeneration system Solution B from BD Biosciences, 5% acetonitrile and 0.05% dimethyl sulfoxide). These are then serially diluted 1:1 (160 μL to 160 μL co-factor mix) for a total of 10 points. A 10 μL aliquot of this final mixture is dispensed into 384 well assay plates and incubated for 10 minutes at 37° C. Enzyme and substrate mix (10 μL; 0.5 pmol CYP1A2/5 μM CEC; 1.0 pmol CYP2C9/75 μM MFC; 0.5 pmol CYP2C19/25 μM CEC; 1.5 pmol CYP2D6/1.5 μM AMMC; 1.0 pmol CYP3A4/50 μM BFC; or 1.0 pmol CYP3A4/40 μM BQ) is added to these assay plates. Assay plates are incubated at 37° C. (CYP1A2-15 min; CYP2C9-45 min; CYP2C19, 2D6 and 3A4-30 min) and read in a Tecan Safire 2 plate reader (CYP1A2, 2C19 and 3A4 409 ex/460 em; CYP2C9 and 2D6 409 ex/530 em). The signal versus compound concentration is used to determine the IC50. The enzymes and substrates for this assay are obtained from BD Biosciences.

CYP2C9 = CYP2C9 (Homo sapiens, UniProt P11712); assay: CYP2C9 inhibition (fluorescent substrate MFC); type: in vitro ADME; details: read-out: Cyp IC50 (μM) 2C9
Experimental: as §1

CYP2D6 = CYP2D6 (Homo sapiens, UniProt P10635); assay: CYP2D6 inhibition (fluorescent substrate AMMC); type: in vitro ADME; details: read-out: Cyp IC50 (μM) 2D6
Experimental: as §1

CYP1A2 = target: T1, CYP1A2 (Homo sapiens, UniProt P05177); assay: CYP1A2 inhibition (fluorescent substrate CEC); type: in vitro ADME; details: read-out: Cyp IC50 (μM) 1A2
T1 sequence (P05177 1-516): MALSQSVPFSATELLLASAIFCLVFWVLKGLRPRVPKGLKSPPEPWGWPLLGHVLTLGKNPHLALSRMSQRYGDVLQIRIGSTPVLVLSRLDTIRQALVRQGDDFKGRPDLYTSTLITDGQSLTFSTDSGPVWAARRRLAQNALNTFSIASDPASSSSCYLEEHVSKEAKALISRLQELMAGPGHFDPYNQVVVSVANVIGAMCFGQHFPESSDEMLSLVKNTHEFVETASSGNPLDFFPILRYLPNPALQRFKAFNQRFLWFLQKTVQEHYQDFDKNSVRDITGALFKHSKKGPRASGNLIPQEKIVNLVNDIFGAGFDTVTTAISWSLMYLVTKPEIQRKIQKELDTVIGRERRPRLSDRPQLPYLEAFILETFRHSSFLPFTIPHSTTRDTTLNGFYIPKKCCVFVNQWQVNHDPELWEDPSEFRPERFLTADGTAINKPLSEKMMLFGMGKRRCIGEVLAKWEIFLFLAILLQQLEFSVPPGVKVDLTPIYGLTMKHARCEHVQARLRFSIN
Experimental: as §1

CYP2C19 = CYP2C19 (Homo sapiens, UniProt P33261); assay: CYP2C19 inhibition (fluorescent substrate CEC); type: in vitro ADME; details: read-out: Cyp IC50 (μM) 2C19
Experimental: as §1

CYP3A4(BQ) = CYP3A4(BQ) (Homo sapiens, UniProt P08684); assay: CYP3A4 inhibition (substrate BQ); type: in vitro ADME; details: read-out: Cyp IC50 (μM) 3A4(BQ)
Experimental: as §1

[1] = Relative solubility by turbidity in aqueous buffers (pH 1.5, 4.5, 6.8, 7.4); type: physicochemical; details: for turbidity threshold (L, M, H) 1.4: pH 1.5 buffer (SGF); for turbidity threshold (L, M, H) 4.5: pH 4.5 buffer (SIF); for turbidity threshold (L, M, H) 6.8: pH 6.8 buffer (SIF); for turbidity threshold (L, M, H) 7.4: pH 7.4 buffer (HEPES)
Outline: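 2-fold DMSO dilution series from 25 mM stocks were added to SGF (0.5M NaCl, pH 1.5), SIF (0.05M NaH2PO4, pH 4.5/6.8) or HEPES (10 mM, 150 mM NaCl, pH 7.4). Absorbance at 490, 535 and 650 nm; value is the concentration crossing OD 0.01, averaged over wavelengths. Low <31.3 μM, moderate 31.3–250 μM, high >250 μM.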

c-Raf-1 = c-Raf-1 (Homo sapiens, UniProt P04049); assay: c-Raf-1 kinase activity assay (AlphaScreen, biotin-MEK1 substrate); details: 100 μM ATP, 100 nM biotin-MEK1, 45 minutes at room temperature; read-out: Biochemical activity (IC50 μM) c-Raf-1
Outline: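 Each Raf enzyme (0.1 ng) phosphorylates 100 nM biotin-MEK1 in pH 7.0 HEPES with Mg2+/Mn2+, 100 μM ATP final, 45 min at room temperature. Phospho-MEK1/2 antibody with AlphaScreen beads is read after 3 h. IC50 comes from an 8-point dilution series.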

CYP2C9, sequence (P11712 whole entry): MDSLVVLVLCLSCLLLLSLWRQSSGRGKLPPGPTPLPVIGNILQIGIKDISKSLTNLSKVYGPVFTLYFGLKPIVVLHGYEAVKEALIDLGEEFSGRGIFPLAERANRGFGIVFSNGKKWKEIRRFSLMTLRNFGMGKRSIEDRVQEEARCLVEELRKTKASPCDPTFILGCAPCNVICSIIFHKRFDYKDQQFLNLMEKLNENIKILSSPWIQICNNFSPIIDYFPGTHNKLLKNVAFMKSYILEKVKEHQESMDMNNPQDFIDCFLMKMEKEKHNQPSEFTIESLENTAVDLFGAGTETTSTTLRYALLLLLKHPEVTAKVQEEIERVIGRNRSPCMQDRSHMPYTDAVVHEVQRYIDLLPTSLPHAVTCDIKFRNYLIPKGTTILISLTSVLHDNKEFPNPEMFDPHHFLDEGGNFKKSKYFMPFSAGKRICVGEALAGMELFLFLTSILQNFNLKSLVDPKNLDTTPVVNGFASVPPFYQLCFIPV
CYP2D6, sequence (P10635 whole entry): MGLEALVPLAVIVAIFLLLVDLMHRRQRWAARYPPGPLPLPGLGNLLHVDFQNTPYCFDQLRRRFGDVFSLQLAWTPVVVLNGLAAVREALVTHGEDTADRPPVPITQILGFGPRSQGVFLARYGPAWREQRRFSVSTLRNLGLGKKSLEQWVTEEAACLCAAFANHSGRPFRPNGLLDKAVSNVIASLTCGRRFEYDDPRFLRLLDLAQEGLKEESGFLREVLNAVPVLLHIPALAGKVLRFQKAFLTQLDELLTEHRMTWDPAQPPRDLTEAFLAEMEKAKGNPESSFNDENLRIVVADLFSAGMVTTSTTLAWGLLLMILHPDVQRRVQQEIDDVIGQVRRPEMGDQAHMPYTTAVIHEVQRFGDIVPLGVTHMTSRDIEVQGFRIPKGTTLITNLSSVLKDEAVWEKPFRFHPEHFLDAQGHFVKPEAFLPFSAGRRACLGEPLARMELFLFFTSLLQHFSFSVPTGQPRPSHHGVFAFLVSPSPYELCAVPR
CYP3A4(BQ), sequence (P08684 whole entry): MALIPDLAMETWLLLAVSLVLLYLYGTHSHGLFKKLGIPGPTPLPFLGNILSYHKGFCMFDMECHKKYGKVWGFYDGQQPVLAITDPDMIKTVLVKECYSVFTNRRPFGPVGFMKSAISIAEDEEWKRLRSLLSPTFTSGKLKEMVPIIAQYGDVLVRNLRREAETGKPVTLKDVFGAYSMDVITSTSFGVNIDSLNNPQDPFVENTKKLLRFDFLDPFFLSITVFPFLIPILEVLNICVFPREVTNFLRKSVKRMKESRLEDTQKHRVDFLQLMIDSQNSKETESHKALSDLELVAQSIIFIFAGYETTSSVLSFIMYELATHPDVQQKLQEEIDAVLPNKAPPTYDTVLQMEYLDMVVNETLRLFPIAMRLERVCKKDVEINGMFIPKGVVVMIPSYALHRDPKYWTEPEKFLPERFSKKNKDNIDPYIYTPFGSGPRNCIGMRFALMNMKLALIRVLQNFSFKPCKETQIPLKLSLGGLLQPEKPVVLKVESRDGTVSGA
CYP3A4(BFC), sequence (P08684 whole entry): as above
CYP2C19, sequence (P33261 whole entry): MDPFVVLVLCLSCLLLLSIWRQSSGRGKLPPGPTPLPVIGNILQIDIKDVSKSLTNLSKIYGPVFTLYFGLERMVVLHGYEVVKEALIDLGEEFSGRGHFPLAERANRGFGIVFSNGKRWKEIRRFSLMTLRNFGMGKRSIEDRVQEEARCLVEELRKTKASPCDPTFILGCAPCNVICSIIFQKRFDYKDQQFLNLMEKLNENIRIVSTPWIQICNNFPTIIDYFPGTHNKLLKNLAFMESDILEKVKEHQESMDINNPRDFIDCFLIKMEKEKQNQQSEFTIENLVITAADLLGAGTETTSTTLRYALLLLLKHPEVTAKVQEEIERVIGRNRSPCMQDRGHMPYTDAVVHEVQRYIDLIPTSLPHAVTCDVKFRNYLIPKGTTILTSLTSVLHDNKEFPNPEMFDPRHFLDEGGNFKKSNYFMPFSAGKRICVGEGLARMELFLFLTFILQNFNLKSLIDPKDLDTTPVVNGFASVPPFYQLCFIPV
c-Raf-1, sequence (P04049 whole entry Y340D/Y341D, form open): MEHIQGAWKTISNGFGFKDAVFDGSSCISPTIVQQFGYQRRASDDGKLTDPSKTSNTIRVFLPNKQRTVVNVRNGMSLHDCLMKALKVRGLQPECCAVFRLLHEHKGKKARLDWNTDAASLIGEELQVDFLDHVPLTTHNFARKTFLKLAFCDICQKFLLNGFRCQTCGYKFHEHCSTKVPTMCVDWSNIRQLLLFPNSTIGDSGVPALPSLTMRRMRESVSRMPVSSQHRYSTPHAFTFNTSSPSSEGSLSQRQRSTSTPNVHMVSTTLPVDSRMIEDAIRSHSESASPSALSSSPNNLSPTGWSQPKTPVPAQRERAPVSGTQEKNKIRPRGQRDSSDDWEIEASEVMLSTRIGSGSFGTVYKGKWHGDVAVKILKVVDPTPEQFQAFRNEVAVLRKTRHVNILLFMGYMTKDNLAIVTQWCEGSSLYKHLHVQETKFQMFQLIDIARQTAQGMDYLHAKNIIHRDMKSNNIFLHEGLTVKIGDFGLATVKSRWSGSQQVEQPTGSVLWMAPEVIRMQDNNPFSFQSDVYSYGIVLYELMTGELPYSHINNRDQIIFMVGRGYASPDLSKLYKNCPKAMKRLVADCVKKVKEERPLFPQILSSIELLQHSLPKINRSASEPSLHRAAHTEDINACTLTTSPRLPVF

| SMILES | IC50 (CYP3A4(BFC)) | IC50 (CYP2C9) | IC50 (CYP2D6) | IC50 (CYP1A2) | IC50 (CYP2C19) | IC50 (CYP3A4(BQ)) | turbidity threshold (L, M, H) 1.4 [1] | turbidity threshold (L, M, H) 4.5 [1] | turbidity threshold (L, M, H) 6.8 [1] | turbidity threshold (L, M, H) 7.4 [1] | IC50 (c-Raf-1) |
| --- | --- | --- | --- | --- | --- | --- | --- | --- | --- | --- | --- |
| CCCS(=O)(=O)Nc1ccc(F)c(C(=O)c2c[nH]c3ncc(-c4ccc5ncccc5c4)cc23)c1F [P-0034, Propane-1-sulfonic acid [2,4-difluoro-3-(5-quinolin-6-yl-1H-pyrrolo[2,3-b]pyridine-3-carbonyl)-phenyl]-amide] | > 10 µM | > 10 µM | > 10 µM | > 10 µM | > 10 µM | > 10 µM |  |  |  |  |  |
| CCCS(=O)(=O)Nc1ccc(F)c(C(=O)c2c[nH]c3ncc(-c4cnn(C5CCN(C(=O)OC(C)(C)C)CC5)c4)cc23)c1F [P-1001, 4-(4-{3-[2,6-Difluoro-3-(propane-1-sulfonylamino)-benzoyl]-1H-pyrrolo[2,3-b]pyridin-5-yl}-pyrazol-1-yl)-piperidine-1-carboxylic acid tert-butyl ester] | 5 to 10 µM | > 10 µM | > 10 µM | > 10 µM | 5 to 10 µM | > 10 µM | M (moderate solubility if the threshold concentration is 31.3 μM to 250 μM) | L (low solubility if the threshold concentration is <31.3 μM) | M (moderate solubility if the threshold concentration is 31.3 μM to 250 μM) | L (low solubility if the threshold concentration is <31.3 μM) | < 0.1 µM |
| O=C(c1c(F)ccc(NS(=O)(=O)c2cc(F)ccc2F)c1F)c1c[nH]c2ncc(-c3cnc(NC4CC4)nc3)cc12 [P-1506, N-{3-[5-(2-Cyclopropylamino-pyrimidin-5-yl)-1H-pyrrolo[2,3-b]pyridine-3-carbonyl]-2,4-difluoro-phenyl}-2,5-difluoro-benzenesulfonamide] | < 5 µM | < 5 µM | > 10 µM | > 10 µM | > 10 µM | > 10 µM | L (low solubility if the threshold concentration is <31.3 μM) | L (low solubility if the threshold concentration is <31.3 μM) | L (low solubility if the threshold concentration is <31.3 μM) | L (low solubility if the threshold concentration is <31.3 μM) |  |
| COc1ncc(-c2cnc3[nH]cc(C(=O)c4cccc(NS(=O)(=O)c5ccccc5F)c4F)c3c2)cn1 [P-1518, 2-Fluoro-N-{2-fluoro-3-[5-(2-methoxy-pyrimidin-5-yl)-1H-pyrrolo[2,3-b]pyridine-3-carbonyl]-phenyl}-benzenesulfonamide] | > 10 µM | > 10 µM | > 10 µM | > 10 µM | > 10 µM | > 10 µM | L (low solubility if the threshold concentration is <31.3 μM) | L (low solubility if the threshold concentration is <31.3 μM) | L (low solubility if the threshold concentration is <31.3 μM) | L (low solubility if the threshold concentration is <31.3 μM) |  |
| CCCS(=O)(=O)Nc1ccc(F)c(C(=O)c2c[nH]c3ncc(-c4ccc5cccnc5c4)cc23)c1F [P-0033, Propane-1-sulfonic acid [2,4-difluoro-3-(5-quinolin-7-yl-1H-pyrrolo[2,3-b]pyridine-3-carbonyl)-phenyl]-amide] | > 10 µM | > 10 µM | > 10 µM | > 10 µM | < 5 µM | > 10 µM | L (low solubility if the threshold concentration is <31.3 μM) | L (low solubility if the threshold concentration is <31.3 μM) | L (low solubility if the threshold concentration is <31.3 μM) | L (low solubility if the threshold concentration is <31.3 μM) |  |
